# Measured values from patent US9128100B2, “Non-invasive diagnostic method for the evaluation of intestinal lactase deficiency (hypolactasia)” (Venter Pharma, S.L., priority 2012, dated 2015).
# “And” between values parts separate entries of the source, which are not always exact repeats. Equal entries are not always repeated.
# How the values were obtained:
# [1] = target: T1, intestinal lactase (Homo sapiens, UniProt P09848); settings: ES 2208099, cited from earlier work
# T1 construct: after its oral administration it is hydrolysed by the intestinal mucosa enzyme; from tissue; host or cells: small-intestinal mucosa (enterocyte brush border) of living human volunteers and patients, in vivo
# [2] = target: T1, intestinal lactase; experiment: 4-GX test in 5-hour urine, patients with symptoms suggestive of lactose intolerance; type: in vivo
# Experimental: The diagnostic tests to which these patients were subjected were: • Intestinal biopsy: determining intestinal lactase activity therein. • Hydrogen breath test after the oral administration to patients of 50 g of lactose. While this test was being carried out, several capillary-blood glucose test (Glycemia tests) were carried out, calculating the highest increase observed in the blood glucose concentration compared to basal glucose level before starting the test. • 4-GX test in total urine at 0-4 and 0-5 hours, which was orally administered to patients 0.5 g of this product (or 0.45 g in a 4-GX sample including 10 wt % water), collecting the total urine accumulated over 0-4 h and 0-5 h following the administration of 4-GX and determining the amount of excreted xylose in both volumes of urine. • 4-GX test in blood which was orally administered to patients 3 g of this product (or 2.7 g in a 4-GX sample including 10 wt % water) to determine the concentration of plasma xylose in a blood sample 90 minutes after ingestion of the product. The concentration obtained was compared to a basal blood sample extracted before ingestion of 4-GX.
# The 4-GX was orally administered in a single dose dissolved in 100 ml of water.
# From here on, the optimum dose of 0.5 g of 4-GX (or 0.45 g in a 4-GX sample including 10 wt % water) was used in the 4-GX urine test for the diagnosis of intestinal lactase deficiency by the non-invasive method described in the present invention. This dose was dissolved in 100 ml water, and following the test protocol, 2 samples of urine excreted during the 5 hours following the administration of the drug were taken, in two interval groups: at 4 hours following administration of 4-GX and at 5 hours following administration of 4-GX.
# From the data obtained from the various urine tests for intestinal lactase deficiency following oral ingestion of 4-GX described in the present invention, a descriptive statistical analysis was performed of the amount of xylose excreted in the urine up to 4 hours and up to 5 hours following said administration. The same was done with the blodd test for intestinal lactase activity following oral ingestion of 4-GX, where descriptive statistical analysis was performed on the amount of xylose present in the plasma of subjects at 90 minutes following administration of 4-GX. The net increase in the plasma xylose concentration compared to basal values was also calculated.
# To obtain the statistical parameters of lactase determination using the various 4-GX tests described in the present invention and later to compare them with the results obtained from the intestinal biopsy test, hydrogen in exhaled air test and capillary-blood glucose test, the normal limits of the measurement of the total amount of xylose excreted in 4-hour and 5-hour urine and the concentration of blood xylose after 90 minutes following ingestion of 4-GX described in Table 5 were used. The normal limits for the other tests were those used in common clinical practice for the diagnosis of lactose intolerance (Arola, H. (1994) Diagnosis of hypolactasia and lactose malabsorption. Scand. J. Gastroenterol. […] (Suppl), 26-35), which are:
# For the measurement of lactase by intestinal biopsy, the lower normal limit is established at 10 units/g protein, with values less than this being considered positive.
# [3] = 0.5 g 4-GX, 0-5 h urine, cut-off 37.87 mg, 205 patients
# [4] = 0.5 g 4-GX, 5-hour urine, lactase in intestinal biopsy as gold standard
# [5] = 5-hour urine, after correcting biopsy diagnosis
# [6] = 5-hour urine, after correction of the biopsy diagnostic result (five discrepancies)
# [7] = 5-hour urine, after correction of the biopsy diagnostic result (four discrepancies)
# [8] = 5-hour urine, biopsy as gold standard
# [9] = 5-hour urine, final criteria of Table 9
# T1 sequence (P09848 869-1927): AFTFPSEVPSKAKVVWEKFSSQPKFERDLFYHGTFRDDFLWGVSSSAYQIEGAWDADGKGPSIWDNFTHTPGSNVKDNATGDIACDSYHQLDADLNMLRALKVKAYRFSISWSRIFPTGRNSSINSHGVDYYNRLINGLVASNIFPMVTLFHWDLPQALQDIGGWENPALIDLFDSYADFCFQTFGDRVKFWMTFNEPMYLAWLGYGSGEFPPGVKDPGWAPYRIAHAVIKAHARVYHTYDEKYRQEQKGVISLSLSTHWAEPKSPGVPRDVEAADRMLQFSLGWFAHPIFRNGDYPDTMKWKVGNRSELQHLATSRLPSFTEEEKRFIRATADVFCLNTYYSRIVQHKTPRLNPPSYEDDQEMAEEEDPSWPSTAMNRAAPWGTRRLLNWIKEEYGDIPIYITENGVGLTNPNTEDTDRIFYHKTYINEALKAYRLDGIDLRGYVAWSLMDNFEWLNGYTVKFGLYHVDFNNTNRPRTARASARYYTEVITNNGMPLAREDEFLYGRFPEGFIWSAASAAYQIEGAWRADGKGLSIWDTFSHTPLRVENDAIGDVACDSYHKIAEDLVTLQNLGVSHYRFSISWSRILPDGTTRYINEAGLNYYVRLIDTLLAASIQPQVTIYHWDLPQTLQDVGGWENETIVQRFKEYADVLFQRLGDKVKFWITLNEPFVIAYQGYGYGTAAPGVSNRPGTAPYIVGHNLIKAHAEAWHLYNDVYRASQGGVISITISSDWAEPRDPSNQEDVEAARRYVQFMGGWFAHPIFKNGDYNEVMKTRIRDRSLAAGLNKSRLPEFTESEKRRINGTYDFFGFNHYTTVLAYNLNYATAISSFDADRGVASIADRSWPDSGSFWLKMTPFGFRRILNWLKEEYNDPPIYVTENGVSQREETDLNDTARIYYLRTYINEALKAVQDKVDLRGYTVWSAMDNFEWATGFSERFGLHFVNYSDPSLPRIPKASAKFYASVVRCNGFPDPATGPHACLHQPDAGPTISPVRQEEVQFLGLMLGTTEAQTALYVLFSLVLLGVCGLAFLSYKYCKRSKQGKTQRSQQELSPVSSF
compound,measurement,setting,value
"O=C[C@H](O)[C@@H](O)[C@@H](CO)O[C@@H]1O[C@H](CO)[C@H](O)[C@H](O)[C@H]1O [4-GX, 4-O-β-galactopyranosyl-D-xylose]",time of maximum xylose in plasma after ingestion,"[1]; 3 g 4-GX oral, lactose-tolerant adult volunteers",around 2 hours
same,dose of 4-GX sufficient for reliable detection of xylose in urine,[1]; healthy lactose-tolerant adult volunteers,0.25 g
same,No. Negative,[2]; [3],96
same,No. Positive (patients presenting intestinal lactase deficiency),[2]; [3],109
same,Percentage of patients negative,[2]; [3],47%
same,Percentage of patients positive,[2]; [3],53.2% and 53%
same,Negative predictive value,[2]; [4],92.7% and 92.71%
same,Positive predictive value,[2]; [4],92.7% and 92.66%
same,Sensitivity,[2]; [4],93.5% and 93.52%
same,Specificity,[2]; [4],91.8% and 91.75%
same,sensitivity calculated using the ROC curves,[2]; 5-hour urine samples,93.5%
same,specificity calculated using the ROC curves,[2]; 5-hour urine samples,91.8%
same,"range of recalculated sensitivity, specificity, positive and negative predictive values","[2]; 5-hour urine test, after correcting biopsy diagnosis",96.94-99.07
same,false negatives,[2]; [5],0.93%
same,negative likelihood ratio,[2]; [5],0.010
same,positive likelihood ratio,[2]; [5],32.361
same,Negative predictive value,[2]; [6],98.96%
same,Positive predictive value,[2]; [6],97.25%
same,Sensitivity,[2]; [6],99.07%
same,Specificity,[2]; [6],96.94%
same,Negative predictive value,[2]; [7],100.00%
same,Positive predictive value,[2]; [7],98.17%
same,Sensitivity,[2]; [7],100.00%
same,Specificity,[2]; [7],97.96%
same,area under the ROC curve,[2]; [8],0.9315
same,false negatives,[2]; [8],6.5%
same,false positives,[2]; [8],8.2%
same,"concordant positive results, percentage",[2]; [9],99.1%
same,final number of concordant positive results,[2]; [9],106
same,"negative results (concordant), percentage",[2]; [9],96.9%
same,number of negative results (concordant),[2]; [9],95
